Reference: PubChem BioAssay (NCI)
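Each compound was tested at five concentrations against cells in 96-well plates for 48 hours. GI50 = concentration required for 50% inhibition of growth. TGI: concentration producing complete growth inhibition.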

What was measured:
Assay in all cases: growth of human tumour cells (NCI), 48 h
786-0 renal = tested on: 786-0 renal
A498 renal = tested on: A498 renal
A549 NSCLC = tested on: A549 NSCLC
ACHN renal = tested on: ACHN renal
BT-549 breast = tested on: BT-549 breast
CAKI-1 renal = tested on: CAKI-1 renal
CCRF-CEM leukemia = tested on: CCRF-CEM leukemia
COLO 205 colon = tested on: COLO 205 colon
DU-145 prostate = tested on: DU-145 prostate
EKVX NSCLC = tested on: EKVX NSCLC
HCC-2998 colon = tested on: HCC-2998 colon
HCT-116 colon = tested on: HCT-116 colon
HCT-15 colon = tested on: HCT-15 colon
HL-60(TB) leukemia = tested on: HL-60(TB) leukemia
HOP-62 NSCLC = tested on: HOP-62 NSCLC
HOP-92 NSCLC = tested on: HOP-92 NSCLC
HS 578T breast = tested on: HS 578T breast
HT29 colon = tested on: HT29 colon
IGROV1 ovarian = tested on: IGROV1 ovarian
K-562 leukemia = tested on: K-562 leukemia
KM12 colon = tested on: KM12 colon
LOX IMVI melanoma = tested on: LOX IMVI melanoma
M14 melanoma = tested on: M14 melanoma
MALME-3M melanoma = tested on: MALME-3M melanoma
MCF7 breast = tested on: MCF7 breast
MDA-MB-231 breast = tested on: MDA-MB-231 breast
MDA-MB-435 = tested on: MDA-MB-435
MDA-MB-468 breast = tested on: MDA-MB-468 breast
MOLT-4 leukemia = tested on: MOLT-4 leukemia
NCI-H226 lung = tested on: NCI-H226 lung
NCI-H23 lung = tested on: NCI-H23 lung
NCI-H460 lung = tested on: NCI-H460 lung
NCI-H522 lung = tested on: NCI-H522 lung
NCI/ADR-RES ovarian = tested on: NCI/ADR-RES ovarian
OVCAR-3 ovarian = tested on: OVCAR-3 ovarian
OVCAR-4 ovarian = tested on: OVCAR-4 ovarian
OVCAR-5 ovarian = tested on: OVCAR-5 ovarian
OVCAR-8 ovarian = tested on: OVCAR-8 ovarian
PC-3 prostate = tested on: PC-3 prostate
RPMI-8226 leukemia = tested on: RPMI-8226 leukemia
RXF 393 renal = tested on: RXF 393 renal
SF-268 CNS = tested on: SF-268 CNS
SF-295 CNS = tested on: SF-295 CNS
SF-539 CNS = tested on: SF-539 CNS
SK-MEL-2 melanoma = tested on: SK-MEL-2 melanoma
SK-MEL-28 melanoma = tested on: SK-MEL-28 melanoma
SK-MEL-5 melanoma = tested on: SK-MEL-5 melanoma
SK-OV-3 ovarian = tested on: SK-OV-3 ovarian
SN12C renal = tested on: SN12C renal
SNB-19 CNS = tested on: SNB-19 CNS
SNB-75 CNS = tested on: SNB-75 CNS
SR leukemia = tested on: SR leukemia
SW-620 colon = tested on: SW-620 colon
T-47D breast = tested on: T-47D breast
TK-10 renal = tested on: TK-10 renal
U251 CNS = tested on: U251 CNS
UACC-257 melanoma = tested on: UACC-257 melanoma
UACC-62 melanoma = tested on: UACC-62 melanoma
UO-31 renal = tested on: UO-31 renal

## C#C[C@]1(O)CC[C@H]2[C@@H]3CC=C4c5sc(Nc6ccc(N(C)C)cc6)nc5CC[C@]4(C)[C@H]3CC[C@@]21C
786-0 renal
  GI50: 0.647 µM
  TGI: 5.34 µM
A498 renal
  GI50: 1.88 µM
  TGI: 4.18 µM
A549 NSCLC
  GI50: 2.5 µM
  TGI: 12.5 µM
ACHN renal
  GI50: 2.24 µM
  TGI: 10.8 µM
BT-549 breast
  GI50: 0.642 µM
  TGI: 3.07 µM
CAKI-1 renal
  GI50: 1.74 µM
  TGI: > 23.6 µM
CCRF-CEM leukemia
  GI50: 812 nM
  TGI: > 86.6 µM
COLO 205 colon
  GI50: 2.62 µM
  TGI: 6.82 µM
DU-145 prostate
  GI50: 2.55 µM
  TGI: 10.8 µM
EKVX NSCLC
  GI50: 1.59 µM
  TGI: 6.49 µM
HCC-2998 colon
  GI50: 3.23 µM
  TGI: 7.82 µM
HCT-116 colon
  GI50: 1.01 µM
  TGI: 3.93 µM
HCT-15 colon
  GI50: 791 nM
  TGI: 2.67 µM
HL-60(TB) leukemia
  GI50: 2.4 µM
  TGI: 12.3 µM
HOP-62 NSCLC
  GI50: 1.89 µM
  TGI: 7.38 µM
HOP-92 NSCLC
  GI50: 2.65 µM
  TGI: 17.8 µM
HS 578T breast
  GI50: 417 nM
  TGI: 3.98 µM
HT29 colon
  GI50: 1.66 µM
  TGI: 4.3 µM
IGROV1 ovarian
  GI50: 3220 nM
  TGI: 10.1 µM
K-562 leukemia
  GI50: 1860 nM
  TGI: 15.8 µM
KM12 colon
  GI50: 2.15 µM
  TGI: 7.11 µM
LOX IMVI melanoma
  GI50: 0.923 µM
  TGI: 2.41 µM
M14 melanoma
  GI50: 1.04 µM
  TGI: 4.51 µM
MALME-3M melanoma
  GI50: 0.858 µM
  TGI: 2.9 µM
MCF7 breast
  GI50: 948 nM
  TGI: 4.21 µM
MDA-MB-231 breast
  GI50: 1.27 µM
  TGI: 3.33 µM
MDA-MB-435
  GI50: 1660 nM
  TGI: 7.37 µM
MDA-MB-468 breast
  GI50: 1510 nM
  TGI: 4.36 µM
MOLT-4 leukemia
  GI50: 374 nM
  TGI: 5.53 µM
NCI-H226 lung
  GI50: 2.41 µM
  TGI: 10.9 µM
NCI-H23 lung
  GI50: 1.33 µM
  TGI: 5.14 µM
NCI-H460 lung
  GI50: 1.44 µM
  TGI: 5.61 µM
NCI-H522 lung
  GI50: 1490 nM
  TGI: 3.25 µM
NCI/ADR-RES ovarian
  GI50: 2.54 µM
  TGI: 10.7 µM
OVCAR-3 ovarian
  GI50: 2.3 µM
  TGI: 7.19 µM
OVCAR-4 ovarian
  GI50: 2.54 µM
OVCAR-5 ovarian
  GI50: 2.41 µM
  TGI: 8.22 µM
OVCAR-8 ovarian
  GI50: 2.99 µM
  TGI: 11 µM
PC-3 prostate
  GI50: 0.999 µM
  TGI: 9.29 µM
RPMI-8226 leukemia
  GI50: 0.248 µM
  TGI: 2200 nM
RXF 393 renal
  GI50: 190 nM
  TGI: 0.715 µM
SF-268 CNS
  GI50: 1.87 µM
  TGI: 10.6 µM
SF-295 CNS
  GI50: 225 nM
  TGI: 0.557 µM
SF-539 CNS
  GI50: 0.284 µM
  TGI: 1.25 µM
SK-MEL-2 melanoma
  GI50: 1.46 µM
  TGI: 4.32 µM
SK-MEL-28 melanoma
  GI50: 0.651 µM
  TGI: 1.88 µM
SK-MEL-5 melanoma
  GI50: 1.49 µM
  TGI: 2.92 µM
SK-OV-3 ovarian
  GI50: 1.35 µM
  TGI: 3.69 µM
SN12C renal
  GI50: 2.63 µM
  TGI: 7.84 µM
SNB-19 CNS
  GI50: 1.49 µM
  TGI: 6.01 µM
SNB-75 CNS
  GI50: 1290 nM
  TGI: 6.32 µM
SR leukemia
  GI50: 567 nM
  TGI: 20.1 µM
SW-620 colon
  GI50: 1.1 µM
  TGI: 3.47 µM
T-47D breast
  GI50: 2.64 µM
  TGI: 15.1 µM
TK-10 renal
  GI50: 7.56 µM
  TGI: 33.3 µM
U251 CNS
  GI50: 0.735 µM
  TGI: 4.44 µM
UACC-257 melanoma
  GI50: 2.01 µM
  TGI: 6.69 µM
UACC-62 melanoma
  GI50: 1270 nM
  TGI: 3.01 µM
UO-31 renal
  GI50: 1500 nM
  TGI: 5.21 µM

## Cn1cc(-c2nnc(N)nc2-c2c[nH]c3ccccc23)c2cc(Br)cnc21
786-0 renal
  GI50: 9.51 µM
  TGI: 26.3 µM
A498 renal
  GI50: 12.3 µM
  TGI: 24.8 µM
A549 NSCLC
  GI50: 12.7 µM
  TGI: 46.9 µM
ACHN renal
  GI50: 5.41 µM
  TGI: 19.2 µM
BT-549 breast
  GI50: 5.94 µM
  TGI: 19.8 µM
CAKI-1 renal
  GI50: 10.7 µM
  TGI: 22.5 µM
CCRF-CEM leukemia
  GI50: 4800 nM
  TGI: 33.6 µM
COLO 205 colon
  GI50: 7.03 µM
  TGI: 21.1 µM
DU-145 prostate
  GI50: 14.5 µM
  TGI: 28.8 µM
EKVX NSCLC
  GI50: 13.2 µM
  TGI: 28.5 µM
HCC-2998 colon
  GI50: 10.1 µM
  TGI: 23.7 µM
HCT-116 colon
  GI50: 8.67 µM
  TGI: 21.2 µM
HCT-15 colon
  GI50: 4680 nM
  TGI: 32 µM
HL-60(TB) leukemia
  GI50: 4.63 µM
  TGI: 34.6 µM
HOP-62 NSCLC
  GI50: 9.73 µM
  TGI: 25.9 µM
HOP-92 NSCLC
  GI50: 4.44 µM
  TGI: 24.1 µM
HS 578T breast
  GI50: 4920 nM
  TGI: 32 µM
HT29 colon
  GI50: 10 µM
  TGI: 27.3 µM
IGROV1 ovarian
  GI50: 2600 nM
  TGI: 17.3 µM
K-562 leukemia
  GI50: 2990 nM
  TGI: > 100 µM
KM12 colon
  GI50: 13.1 µM
  TGI: 27.6 µM
LOX IMVI melanoma
  GI50: 5.19 µM
  TGI: 26.5 µM
M14 melanoma
  GI50: 10.8 µM
  TGI: 23.9 µM
MALME-3M melanoma
  GI50: 8.27 µM
  TGI: 20.7 µM
MCF7 breast
  GI50: 1500 nM
  TGI: 15 µM
MDA-MB-231 breast
  GI50: 7.8 µM
  TGI: 27.6 µM
MDA-MB-435
  GI50: 3110 nM
  TGI: 10.4 µM
MDA-MB-468 breast
  GI50: 2380 nM
  TGI: 12.8 µM
MOLT-4 leukemia
  GI50: 3370 nM
  TGI: 27.3 µM
NCI-H226 lung
  GI50: 12.2 µM
  TGI: 36.7 µM
NCI-H23 lung
  GI50: 13.9 µM
  TGI: 36 µM
NCI-H460 lung
  GI50: 5.02 µM
  TGI: 21 µM
NCI-H522 lung
  GI50: 3780 nM
  TGI: 21.6 µM
NCI/ADR-RES ovarian
  GI50: 10.7 µM
  TGI: 36.3 µM
OVCAR-3 ovarian
  GI50: 11.1 µM
  TGI: 23.4 µM
OVCAR-4 ovarian
  GI50: 7.09 µM
  TGI: 21.2 µM
OVCAR-5 ovarian
  GI50: 14.6 µM
  TGI: 29.8 µM
OVCAR-8 ovarian
  GI50: 12.5 µM
  TGI: 28.9 µM
PC-3 prostate
  GI50: 8.26 µM
  TGI: > 100 µM
RPMI-8226 leukemia
  GI50: 6.43 µM
  TGI: > 100000 nM
RXF 393 renal
  GI50: 3370 nM
  TGI: 20.3 µM
SF-268 CNS
  GI50: 10.7 µM
  TGI: 27.3 µM
SF-295 CNS
  GI50: 4070 nM
  TGI: 17.5 µM
SF-539 CNS
  GI50: 10.7 µM
  TGI: 22.6 µM
SK-MEL-2 melanoma
  GI50: 12.3 µM
  TGI: 27.1 µM
SK-MEL-28 melanoma
  GI50: 10.9 µM
  TGI: 22.8 µM
SK-MEL-5 melanoma
  GI50: 6.84 µM
  TGI: 19.8 µM
SK-OV-3 ovarian
  GI50: 16.6 µM
  TGI: 35.6 µM
SN12C renal
  GI50: 10.2 µM
  TGI: 22.2 µM
SNB-19 CNS
  GI50: 12.2 µM
  TGI: 24.8 µM
SNB-75 CNS
  GI50: 2700 nM
  TGI: 15.6 µM
SR leukemia
  GI50: 1540 nM
  TGI: 71.2 µM
SW-620 colon
  GI50: 10 µM
  TGI: 23.3 µM
T-47D breast
  GI50: 4.12 µM
  TGI: 24.9 µM
TK-10 renal
  GI50: 12.8 µM
  TGI: 26.8 µM
U251 CNS
  GI50: 10.5 µM
  TGI: 23.2 µM
UACC-257 melanoma
  GI50: 13.4 µM
  TGI: 27.1 µM
UACC-62 melanoma
  GI50: 3140 nM
  TGI: 16.8 µM
UO-31 renal
  TGI: 14.8 µM
